Results as given in the NIST ThermoML archive (doi:10.1021/je0502851).
Numbers after ± are expanded uncertainties.

Legend:
[1] = Crystal; DTA
[2] = Molar enthalpy of transition or fusion; settings: Crystal; DSC

In the case of `c1ccc2ccccc2c1` [naphthalene], the Normal melting temperature [1] is reported as 81.54 ± 0.53 °C and the “Molar enthalpy of transition or fusion” value [2] is reported as 4.67 ± 0.215 kcal/mol.
With `NCCCCCCCCCCCCN` [1,12-dodecanediamine] the Normal melting temperature [1] was 68.69 ± 0.53 °C and the “Molar enthalpy of transition or fusion” value [2] was 16 ± 0.359 kcal/mol.
In the case of `NCCCCCCN` [1,6-hexanediamine], the Normal melting temperature [1] is reported as 38.5 ± 0.53 °C and the “Molar enthalpy of transition or fusion” value [2] is reported as 9.41 ± 0.263 kcal/mol.
In the case of `NCCCCCCCCN` [1,8-diaminooctane], the Normal melting temperature [1] is reported as 51.73 ± 0.53 °C and the “Molar enthalpy of transition or fusion” value [2] is reported as 12.1 ± 0.359 kcal/mol.
